Laboratory results published in ChEMBL document CHEMBL1201862, “PubChem BioAssay data set” (2004).
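Tested at 5 concentrations; 48 h exposure; 96-well plates; endpoints linearly interpolated, else capped at highest concentration. GI50 = concentration required for 50% inhibition of growth.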 Active and inactive are the calls of the source. Rule as the data show it: active = GI50 up to about 1.1 µM and inactive = higher.

Experiments:
Assay in all cases: NCI anticancer screen, dose series, 48 h
OVCAR-4 = system: OVCAR-4
A498 = system: A498
IGROV-1 = system: IGROV-1
UACC-62 = system: UACC-62
HL-60 = system: HL-60
MDA-MB-231 = system: MDA-MB-231
OVCAR-5 = system: OVCAR-5
SN12C = system: SN12C
RPMI-8226 = system: RPMI-8226
LOX IMVI = system: LOX IMVI
NCI-H226 = system: NCI-H226
K562 = system: K562
UO-31 = system: UO-31
KM12 = system: KM12
NCI-H460 = system: NCI-H460
NCI-H23 = system: NCI-H23
HOP-92 = system: HOP-92
MDA-N = system: MDA-N
SR = system: SR

| SMILES | GI50 (OVCAR-4) | GI50 (A498) | GI50 (IGROV-1) | GI50 (UACC-62) | GI50 (HL-60) | GI50 (MDA-MB-231) | GI50 (OVCAR-5) | GI50 (SN12C) | GI50 (RPMI-8226) | GI50 (LOX IMVI) | GI50 (NCI-H226) | GI50 (K562) | GI50 (UO-31) | GI50 (KM12) | GI50 (NCI-H460) | GI50 (NCI-H23) | GI50 (HOP-92) | GI50 (MDA-N) | GI50 (SR) |
| --- | --- | --- | --- | --- | --- | --- | --- | --- | --- | --- | --- | --- | --- | --- | --- | --- | --- | --- | --- |
| CC(=O)NC(=O)/N=C1\NCCC(=O)N1CCc1c[nH]c2ccccc12 | > 100 µM (inactive) | > 100 µM (inactive) | > 100 µM (inactive) | > 100 µM (inactive) | > 100 µM (inactive) | > 100 µM (inactive) | > 100 µM (inactive) | > 100 µM (inactive) | > 100 µM (inactive) | > 100 µM (inactive) | > 100 µM (inactive) | > 100 µM (inactive) | > 100 µM (inactive) | > 100 µM (inactive) | > 100 µM (inactive) | > 100 µM (inactive) | > 100 µM (inactive) | > 100 µM (inactive) |  |
| CC(=O)N(CN1C(=O)CCC1C(=O)O)c1ccc(C)cc1 (stereo not drawn) | > 100 µM (inactive) | > 100 µM (inactive) | > 100 µM (inactive) | > 100 µM (inactive) | > 100 µM (inactive) | > 100 µM (inactive) | > 100 µM (inactive) | > 100 µM (inactive) | > 100 µM (inactive) | > 100 µM (inactive) | > 100 µM (inactive) | > 100 µM (inactive) | > 100 µM (inactive) | > 100 µM (inactive) | > 100 µM (inactive) | > 100 µM (inactive) | > 100 µM (inactive) | > 100 µM (inactive) |  |
| Cc1cc(C)nc(NS(=O)(=O)c2ccc(Nc3c4ccc(Cl)cc4nc4c(C(=O)NCCN(C)C)cccc34)cc2)n1 | > 100 µM (inactive) | > 100 µM (inactive) | > 100 µM (inactive) | > 100 µM (inactive) | > 100 µM (inactive) |  | > 100 µM (inactive) | > 100 µM (inactive) | > 100 µM (inactive) | > 100 µM (inactive) | > 100 µM (inactive) | 59.2 µM (inactive) | > 100 µM (inactive) | > 100 µM (inactive) | > 100 µM (inactive) | > 100 µM (inactive) | 78 µM (inactive) |  | 55.7 µM (inactive) |
| CC1(C)O[C@H]2OC(CO)C(OS(C)(=O)=O)[C@H]2O1 (stereo partly drawn) | > 10 µM (inactive) | > 100 µM (inactive) | > 100 µM (inactive) | > 100 µM (inactive) | > 100 µM (inactive) | > 100 µM (inactive) | > 100 µM (inactive) | > 100 µM (inactive) | > 100 µM (inactive) | > 100 µM (inactive) |  |  | > 100 µM (inactive) | > 100 µM (inactive) | > 100 µM (inactive) | > 100 µM (inactive) | > 100 µM (inactive) | > 100 µM (inactive) |  |
| COc1cc(Cn2c3c(c4c(CN(C)C)c(O)ccc42)C(=O)c2ccccc2C3=O)cc(OC)c1 | 13.9 µM (inactive) | 10.1 µM (inactive) |  | 23.1 µM (inactive) | 22.4 µM (inactive) | 17.7 µM (inactive) | 21.7 µM (inactive) | 22.9 µM (inactive) | 18.5 µM (inactive) | 16.6 µM (inactive) | 33.2 µM (inactive) | 14 µM (inactive) | 14.6 µM (inactive) | 26.4 µM (inactive) | 17.7 µM (inactive) | 15.7 µM (inactive) |  | 15.7 µM (inactive) | 10.3 µM (inactive) |
| O=C1C2c3[nH]c4ccccc4c3C3CCCCCC3C2C(=O)N1c1ccccc1 (stereo not drawn) | 3.09 µM (inactive) | 30.8 µM (inactive) | 21.8 µM (inactive) | > 63.7 µM (inactive) | > 45.6 µM (inactive) |  | > 100 µM (inactive) | 9.71 µM (inactive) | > 100 µM (inactive) | 14.9 µM (inactive) | 21.3 µM (inactive) | > 55 µM (inactive) | 38.2 µM (inactive) | > 100 µM (inactive) | 11.3 µM (inactive) | > 49.8 µM (inactive) | 30.1 µM (inactive) |  | > 33.3 µM (inactive) |
| CN(C)CC(NC(NCS)C(=O)NCCNc1ccc(NCCNC(=O)C(NCS)NC(CN(C)C)OCCl)c2c1C(=O)c1c(O)ccc(O)c1C2=O)OCCl (stereo not drawn) | 0.502 µM (active) | 0.0635 µM (active) | 0.145 µM (active) | 0.0301 µM (active) |  | 0.0547 µM (active) | 0.525 µM (active) | 0.0311 µM (active) | 0.0016 µM (active) | 0.0245 µM (active) | 0.0585 µM (active) | 0.00678 µM (active) | 0.0331 µM (active) | 0.172 µM (active) | < 0.001 µM (active) | 0.00877 µM (active) |  | 0.267 µM (active) |  |
| CCCNCC(=O)O[C@]1(CC)C(=O)OCc2c1cc1n(c2=O)Cc2cc3ccccc3nc2-1 | 0.69 µM (active) | 0.163 µM (active) | 0.325 µM (active) | < 0.01 µM (active) | < 0.01 µM (active) |  | 0.129 µM (active) | < 0.01 µM (active) | 0.0498 µM (active) | 0.0134 µM (active) | 0.0121 µM (active) | 0.181 µM (active) | 0.0637 µM (active) | 0.528 µM (active) | < 0.01 µM (active) | 0.0149 µM (active) | 0.325 µM (active) |  | < 0.01 µM (active) |
| CSC(=S)N(C)c1nc(N(C)C)s[s+]1 | > 100 µM (inactive) | 44.4 µM (inactive) | > 100 µM (inactive) | > 100 µM (inactive) | 65.2 µM (inactive) |  | > 100 µM (inactive) | > 100 µM (inactive) | 19.9 µM (inactive) |  | > 100 µM (inactive) | > 100 µM (inactive) | > 100 µM (inactive) | > 100 µM (inactive) | > 100 µM (inactive) | > 100 µM (inactive) | > 100 µM (inactive) |  | > 100 µM (inactive) |
| O=C(O)CSc1nnc(/C=C/c2ccccc2)[nH]1 | > 100 µM (inactive) | > 100 µM (inactive) | > 100 µM (inactive) | > 100 µM (inactive) | > 100 µM (inactive) |  | > 100 µM (inactive) | > 100 µM (inactive) | > 100 µM (inactive) | > 61.2 µM (inactive) | > 100 µM (inactive) | > 100 µM (inactive) | > 100 µM (inactive) | > 100 µM (inactive) | > 100 µM (inactive) | > 100 µM (inactive) | > 100 µM (inactive) |  | > 100 µM (inactive) |
| CN1CCC(c2c(O)cc(O)c3c(=O)cc(-c4ccccc4Cl)oc23)C(O)C1 (stereo not drawn) | 0.124 µM (active) | 0.117 µM (active) | 0.0735 µM (active) | 0.0289 µM (active) | 0.0197 µM (active) |  | 0.128 µM (active) | 0.143 µM (active) | < 0.01 µM (active) | 0.0173 µM (active) | 0.0336 µM (active) | 0.259 µM (active) | 0.0303 µM (active) | 0.0228 µM (active) | 0.0592 µM (active) | 0.0557 µM (active) | 0.0194 µM (active) |  | 0.0247 µM (active) |
| CCOc1ccc(/C=C/c2cc(OC)c(OC)c(OC)c2)cc1 | 11.7 µM (inactive) | 0.439 µM (active) | 2.19 µM (inactive) | 0.385 µM (active) | 0.509 µM (active) |  | > 100 µM (inactive) | 4.02 µM (inactive) | 0.601 µM (active) | 1.59 µM (inactive) | 2.45 µM (inactive) | 0.458 µM (active) | 17.1 µM (inactive) | 0.411 µM (active) | 1.05 µM (active) | 2.92 µM (inactive) | 10.8 µM (inactive) |  | 2.46 µM (inactive) |
